The text below walks through data of the kinase profiling compilation of Christmann-Franck et al. (2016).

pKd: −log10 of the molar value.

What all share (assay): KINOMEscan competition binding
Experiment [1] concerns the target NUAK1 (human) (UniProt O60285). To be noted: compound 10.0 µM.
The target in experiment [2] is FRK (human) (UniProt P42685).
The target in experiment [3] is PDGFRB (human) (UniProt P09619). To be noted: compound 10.0 µM.
In experiment [4] the test system is KIT (human), P10721 [V559D]. To be noted: compound 10.0 µM.
Experiment [5] deals with ABL1 (human), P00519 [F317L]. To be noted: compound 10.0 µM.
Experiment [6] deals with TNK2 (human) (UniProt Q07912). To be noted: compound 10.0 µM.
Experiment [7] addresses SGK110 (human) (UniProt P0C264). The settings on record: compound 10.0 µM.
Experiment [8] addresses PLK4 (human) (UniProt O00444). The settings on record: compound 10.0 µM.
In experiment [9] the test system is ABL1 (human), P00519 [F317I]. To be noted: compound 10.0 µM.
Experiment [10] has as its target KIT (human) (UniProt P10721). To be noted: compound 10.0 µM.
The target in experiment [11] is CSF1R (human) (UniProt P07333).
Experiment [12] deals with PTK6 (human) (UniProt Q13882).
Experiment [13] addresses TNK1 (human) (UniProt Q13470).
The target of experiment [14] is MKNK2 (human) (UniProt Q9HBH9). To be noted: compound 10.0 µM.
In experiment [15] the target is DCLK1 (human) (UniProt O15075). The settings on record: for kinase still bound, per cent of control: compound 10.0 µM.
Experiment [16] has as its target MAPK7 (human) (UniProt Q13164).
Experiment [17] concerns the target PRKD3 (human) (UniProt O94806). To be noted: compound 10.0 µM.
The target in experiment [18] is PRKD1 (human) (UniProt Q15139). To be noted: compound 10.0 µM.
For experiment [19], the target named is DCLK2 (human) (UniProt Q8N568). To be noted: for kinase still bound, per cent of control: compound 10.0 µM.
The target in experiment [20] is RPS6KA6 KD2 (human) (UniProt Q9UK32). The settings on record: compound 10.0 µM.
In experiment [21] the target is FGFR4 (human) (UniProt P22455). The settings on record: compound 10.0 µM.
The target in experiment [22] is SRMS (human) (UniProt Q9H3Y6). The settings on record: compound 10.0 µM.
Experiment [23] deals with GAK (human) (UniProt O14976). To be noted: for kinase still bound, per cent of control: compound 10.0 µM.
Experiment [24] deals with MYLK4 (human) (UniProt Q86YV6). To be noted: compound 10.0 µM.
Experiment [25] concerns the target ROS1 (human) (UniProt P08922). To be noted: compound 10.0 µM.
For experiment [26], the target named is RIPK2 (human) (UniProt O43353). The settings on record: compound 10.0 µM.
The target in experiment [27] is RPS6KA1 KD2 (human) (UniProt Q15418). To be noted: compound 10.0 µM.
The target in experiment [28] is PRKD2 (human) (UniProt Q9BZL6). The settings on record: compound 10.0 µM.
Experiment [29] has as its target CAMKK1 (human) (UniProt Q8N5S9). To be noted: compound 10.0 µM.
Experiment [30] deals with EIF2AK4 KD2 (human), Q9P2K8 [S808G]. To be noted: compound 10.0 µM.
Experiment [31] concerns the target ULK2 (human) (UniProt Q8IYT8). The settings on record: compound 10.0 µM.
Experiment [32] deals with PLK3 (human) (UniProt Q9H4B4). To be noted: compound 10.0 µM.
For experiment [33], the target named is RPS6KA4 KD2 (human) (UniProt O75676). To be noted: compound 10.0 µM.
Experiment [34] has as its target PLK1 (human) (UniProt P53350). The settings on record: compound 10.0 µM.
For experiment [35], the target named is MAP2K3 (human) (UniProt P46734). The settings on record: compound 10.0 µM.
Experiment [36] addresses RPS6KA2 KD2 (human) (UniProt Q15349). To be noted: compound 10.0 µM.
Experiment [37] addresses CHEK1 (human) (UniProt O14757). The settings on record: compound 10.0 µM.
Experiment [38] addresses TTK (human) (UniProt P33981). The settings on record: compound 10.0 µM.
Experiment [39] deals with DAPK3 (human) (UniProt O43293). To be noted: compound 10.0 µM.
The target of experiment [40] is TSSK1B (human) (UniProt Q9BXA7). To be noted: compound 10.0 µM.
In experiment [41] the target is STK33 (human) (UniProt Q9BYT3). To be noted: compound 10.0 µM.
The target of experiment [42] is RIOK2 (human) (UniProt Q9BVS4). To be noted: compound 10.0 µM.
The target of experiment [43] is PIK3CG (human) (UniProt P48736). The settings on record: compound 10.0 µM.
The target in experiment [44] is PIM3 (human) (UniProt Q86V86). The settings on record: compound 10.0 µM.
Experiment [45] concerns the target CSNK2A2 (human) (UniProt P19784). The settings on record: compound 10.0 µM.
Experiment [46] concerns the target HIPK1 (human) (UniProt Q86Z02). To be noted: compound 10.0 µM.
Experiment [47] deals with PIM1 (human) (UniProt P11309). To be noted: compound 10.0 µM.
The target of experiment [48] is PIM2 (human) (UniProt Q9P1W9). The settings on record: compound 10.0 µM.
Experiment [49] addresses DAPK2 (human) (UniProt Q9UIK4). To be noted: compound 10.0 µM.
Experiment [50] concerns the target MINK1 (human) (UniProt Q8N4C8). To be noted: compound 10.0 µM.
Experiment [51] deals with ULK3 (human) (UniProt Q6PHR2). To be noted: compound 10.0 µM.
For experiment [52], the system named is PIK3CA (human), P42336 [E545K]. To be noted: compound 10.0 µM.

Chain of DCLK1 (human) (O15075 whole entry, looked up): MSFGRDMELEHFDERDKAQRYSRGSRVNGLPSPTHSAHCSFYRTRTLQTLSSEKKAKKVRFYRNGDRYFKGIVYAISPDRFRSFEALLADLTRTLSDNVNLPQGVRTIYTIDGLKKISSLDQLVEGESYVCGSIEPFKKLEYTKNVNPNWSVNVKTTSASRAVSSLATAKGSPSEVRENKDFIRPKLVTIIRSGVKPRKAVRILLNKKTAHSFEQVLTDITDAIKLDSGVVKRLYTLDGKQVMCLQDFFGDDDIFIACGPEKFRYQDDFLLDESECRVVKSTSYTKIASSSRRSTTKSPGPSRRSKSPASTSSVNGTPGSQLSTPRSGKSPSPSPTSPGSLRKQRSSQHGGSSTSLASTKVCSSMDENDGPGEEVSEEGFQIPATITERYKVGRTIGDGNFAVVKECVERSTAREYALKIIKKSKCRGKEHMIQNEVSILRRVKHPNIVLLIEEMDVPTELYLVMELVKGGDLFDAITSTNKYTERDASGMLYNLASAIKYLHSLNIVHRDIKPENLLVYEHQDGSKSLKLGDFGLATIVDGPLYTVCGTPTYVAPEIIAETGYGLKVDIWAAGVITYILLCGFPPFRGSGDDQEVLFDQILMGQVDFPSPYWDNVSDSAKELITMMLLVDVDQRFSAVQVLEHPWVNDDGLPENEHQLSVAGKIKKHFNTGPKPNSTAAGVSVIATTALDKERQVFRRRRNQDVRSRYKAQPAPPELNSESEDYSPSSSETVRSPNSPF
Chain of GAK (human) (O14976 whole entry, looked up): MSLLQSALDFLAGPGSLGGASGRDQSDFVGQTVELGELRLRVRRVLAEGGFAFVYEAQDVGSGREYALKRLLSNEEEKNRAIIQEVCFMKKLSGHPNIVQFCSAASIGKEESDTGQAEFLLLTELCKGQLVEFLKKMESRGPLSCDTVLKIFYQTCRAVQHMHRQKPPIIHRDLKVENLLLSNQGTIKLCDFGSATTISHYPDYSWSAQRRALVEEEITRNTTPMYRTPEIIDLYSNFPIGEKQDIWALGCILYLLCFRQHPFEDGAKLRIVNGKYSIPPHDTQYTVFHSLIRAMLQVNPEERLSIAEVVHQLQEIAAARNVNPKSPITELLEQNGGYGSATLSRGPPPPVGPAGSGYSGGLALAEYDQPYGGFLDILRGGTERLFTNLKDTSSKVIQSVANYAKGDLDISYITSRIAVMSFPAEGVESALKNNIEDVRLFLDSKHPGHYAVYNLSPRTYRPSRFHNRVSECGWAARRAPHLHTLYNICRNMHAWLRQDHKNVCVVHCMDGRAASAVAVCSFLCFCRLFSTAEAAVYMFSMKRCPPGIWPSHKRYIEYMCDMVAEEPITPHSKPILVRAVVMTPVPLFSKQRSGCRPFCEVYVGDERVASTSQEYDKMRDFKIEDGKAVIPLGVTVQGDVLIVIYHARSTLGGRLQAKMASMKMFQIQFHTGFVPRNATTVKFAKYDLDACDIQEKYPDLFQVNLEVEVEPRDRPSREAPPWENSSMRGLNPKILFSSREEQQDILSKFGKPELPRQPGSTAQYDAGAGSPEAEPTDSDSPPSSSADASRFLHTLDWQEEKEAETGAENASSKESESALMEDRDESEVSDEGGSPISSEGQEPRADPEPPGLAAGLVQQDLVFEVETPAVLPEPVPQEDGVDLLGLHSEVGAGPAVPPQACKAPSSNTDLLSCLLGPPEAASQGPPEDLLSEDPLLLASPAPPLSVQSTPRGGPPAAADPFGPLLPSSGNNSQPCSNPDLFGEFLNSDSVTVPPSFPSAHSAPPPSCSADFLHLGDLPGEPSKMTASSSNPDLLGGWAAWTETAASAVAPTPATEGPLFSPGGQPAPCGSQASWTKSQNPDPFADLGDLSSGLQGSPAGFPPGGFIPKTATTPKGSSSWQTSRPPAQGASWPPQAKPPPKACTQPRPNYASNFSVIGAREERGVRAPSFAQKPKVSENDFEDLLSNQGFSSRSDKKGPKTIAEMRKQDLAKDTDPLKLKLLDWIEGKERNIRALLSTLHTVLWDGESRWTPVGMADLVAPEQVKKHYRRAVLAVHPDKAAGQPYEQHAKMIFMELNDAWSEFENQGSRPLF
Chain of DCLK2 (human) (Q8N568 whole entry, looked up): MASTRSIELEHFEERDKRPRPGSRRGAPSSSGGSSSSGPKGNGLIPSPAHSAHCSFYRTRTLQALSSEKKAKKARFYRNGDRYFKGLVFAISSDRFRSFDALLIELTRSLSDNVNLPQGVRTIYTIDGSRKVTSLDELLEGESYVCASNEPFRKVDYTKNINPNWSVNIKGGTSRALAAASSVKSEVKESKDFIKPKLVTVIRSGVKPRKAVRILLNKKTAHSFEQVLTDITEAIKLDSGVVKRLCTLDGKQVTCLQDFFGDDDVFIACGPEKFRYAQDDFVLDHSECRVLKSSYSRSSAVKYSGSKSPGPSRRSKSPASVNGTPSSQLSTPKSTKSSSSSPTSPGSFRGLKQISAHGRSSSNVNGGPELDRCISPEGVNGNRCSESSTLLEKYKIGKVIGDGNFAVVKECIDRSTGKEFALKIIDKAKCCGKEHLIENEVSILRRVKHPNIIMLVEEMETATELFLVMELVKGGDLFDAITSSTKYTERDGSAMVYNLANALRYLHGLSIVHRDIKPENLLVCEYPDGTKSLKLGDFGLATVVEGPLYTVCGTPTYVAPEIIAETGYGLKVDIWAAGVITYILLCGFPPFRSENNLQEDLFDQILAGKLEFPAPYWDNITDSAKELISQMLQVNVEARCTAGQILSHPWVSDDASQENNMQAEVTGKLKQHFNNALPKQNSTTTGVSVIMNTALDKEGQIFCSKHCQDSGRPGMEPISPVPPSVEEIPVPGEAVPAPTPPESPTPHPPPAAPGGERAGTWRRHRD
Chain of PRKD1 (human) (Q15139 whole entry, looked up): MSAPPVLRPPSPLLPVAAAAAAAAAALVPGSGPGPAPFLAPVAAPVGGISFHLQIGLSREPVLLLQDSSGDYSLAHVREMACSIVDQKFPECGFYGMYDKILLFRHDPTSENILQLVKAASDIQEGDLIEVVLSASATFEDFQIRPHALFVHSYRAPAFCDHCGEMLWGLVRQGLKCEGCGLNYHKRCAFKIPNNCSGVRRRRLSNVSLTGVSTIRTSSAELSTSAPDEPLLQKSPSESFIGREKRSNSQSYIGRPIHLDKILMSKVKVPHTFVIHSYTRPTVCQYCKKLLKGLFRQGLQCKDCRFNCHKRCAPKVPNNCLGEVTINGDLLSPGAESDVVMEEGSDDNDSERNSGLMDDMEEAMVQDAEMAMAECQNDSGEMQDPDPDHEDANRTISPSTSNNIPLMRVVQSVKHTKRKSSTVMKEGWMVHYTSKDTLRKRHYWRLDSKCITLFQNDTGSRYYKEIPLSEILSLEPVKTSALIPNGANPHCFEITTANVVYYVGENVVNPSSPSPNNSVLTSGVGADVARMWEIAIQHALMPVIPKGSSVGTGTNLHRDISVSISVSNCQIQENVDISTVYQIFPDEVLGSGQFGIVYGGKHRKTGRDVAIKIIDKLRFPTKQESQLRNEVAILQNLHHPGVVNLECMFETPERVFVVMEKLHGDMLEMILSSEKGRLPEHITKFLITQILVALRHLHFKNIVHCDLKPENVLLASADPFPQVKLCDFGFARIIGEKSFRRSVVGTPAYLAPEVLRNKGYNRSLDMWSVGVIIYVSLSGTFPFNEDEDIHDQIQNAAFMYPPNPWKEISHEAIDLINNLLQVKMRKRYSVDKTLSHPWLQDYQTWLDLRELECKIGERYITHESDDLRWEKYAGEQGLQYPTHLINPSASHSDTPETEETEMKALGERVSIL
Chain of MAPK7 (human) (Q13164 whole entry, looked up): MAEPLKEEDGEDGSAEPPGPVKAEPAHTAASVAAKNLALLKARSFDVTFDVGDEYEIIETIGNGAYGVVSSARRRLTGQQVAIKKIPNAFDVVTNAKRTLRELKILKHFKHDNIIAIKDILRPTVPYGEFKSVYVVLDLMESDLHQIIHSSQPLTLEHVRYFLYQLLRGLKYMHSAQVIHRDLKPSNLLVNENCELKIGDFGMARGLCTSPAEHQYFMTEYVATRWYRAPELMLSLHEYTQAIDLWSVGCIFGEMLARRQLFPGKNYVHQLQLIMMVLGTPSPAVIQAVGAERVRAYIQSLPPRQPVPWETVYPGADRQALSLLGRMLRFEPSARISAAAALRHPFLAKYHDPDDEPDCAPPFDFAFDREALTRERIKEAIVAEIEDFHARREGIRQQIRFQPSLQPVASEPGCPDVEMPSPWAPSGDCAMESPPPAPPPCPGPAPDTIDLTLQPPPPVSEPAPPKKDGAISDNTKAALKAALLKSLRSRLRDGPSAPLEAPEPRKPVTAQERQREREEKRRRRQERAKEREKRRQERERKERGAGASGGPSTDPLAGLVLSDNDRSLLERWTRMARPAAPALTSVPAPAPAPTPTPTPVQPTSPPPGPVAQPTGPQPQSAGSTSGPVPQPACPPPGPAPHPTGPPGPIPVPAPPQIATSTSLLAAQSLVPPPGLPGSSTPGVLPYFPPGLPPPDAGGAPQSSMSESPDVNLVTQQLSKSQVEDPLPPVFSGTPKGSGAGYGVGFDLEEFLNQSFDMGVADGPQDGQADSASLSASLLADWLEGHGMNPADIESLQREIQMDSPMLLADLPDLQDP
Chain of FRK (human) (P42685 whole entry, looked up): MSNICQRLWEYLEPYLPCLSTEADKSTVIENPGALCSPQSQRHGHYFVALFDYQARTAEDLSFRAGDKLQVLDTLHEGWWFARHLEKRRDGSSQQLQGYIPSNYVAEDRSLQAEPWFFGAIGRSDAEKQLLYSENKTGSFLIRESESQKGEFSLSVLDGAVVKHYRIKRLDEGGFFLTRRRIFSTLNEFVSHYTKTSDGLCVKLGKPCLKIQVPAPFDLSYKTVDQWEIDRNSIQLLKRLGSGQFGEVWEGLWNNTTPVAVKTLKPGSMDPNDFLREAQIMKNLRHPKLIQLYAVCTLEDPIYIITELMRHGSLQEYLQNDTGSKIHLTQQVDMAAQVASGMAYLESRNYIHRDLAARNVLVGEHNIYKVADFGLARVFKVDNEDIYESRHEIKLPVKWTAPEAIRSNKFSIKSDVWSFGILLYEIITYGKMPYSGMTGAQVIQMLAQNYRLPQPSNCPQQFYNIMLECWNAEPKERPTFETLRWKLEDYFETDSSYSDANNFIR

As a reminder, the pKd is the Kd on a negative log10 scale, so that one unit is a factor of ten. A high value points to a small Kd. `COc1cc(N2CCN(C)CC2)ccc1Nc1ncc2c(n1)N(C)c1ccccc1C(=O)N2`: the kinase still bound, per cent of control in experiment [1] is 29%; in experiment [2] (compound 10.0 µM), 0.8%; in [3], 29%; in experiment [4], 22%; in experiment [5], 8%; in experiment [6] it was 0.3%. In addition, the kinase still bound, per cent of control was 31% in experiment [7]; 8.2% in experiment [8]; 3.9% in experiment [9]; 12% in experiment [10]; 1% in experiment [11] (compound 10.0 µM); 0.15% in experiment [12] (compound 10.0 µM). Besides, the kinase still bound, per cent of control in experiment [13] (compound 10.0 µM) was 2.4%; in experiment [14], 27%; in [15], 0.9%; in experiment [16] (compound 10.0 µM) it was 0.5%; in [17], 32%; in [18], 21%. Moreover, the kinase still bound, per cent of control in [19] amounted to 1.4%; in experiment [20] it was 14%; in experiment [21], 34%; in [22], 18%; in [23] it was 3.8%; in experiment [24] it was 2.2%. Moreover, the kinase still bound, per cent of control in [25] worked out at 17%; in experiment [26], 24%; in [27] it was 21%; in [28], 22%; in experiment [29], 28%. Moreover, the pKd was 7.02 in [2]; 6.48 in [11]; 7.43 in [12]; 6.96 in experiment [13]; 6.55 in [15]; 6.17 in [16]. The pKd in [19] is 6.16; in [23], 6.57.

Take `COc1cc(N2CCN(C)CC2)ccc1Nc1ncc2c(n1)N1CCC[C@H]1CC(=O)N2C`: the kinase still bound, per cent of control in [30] came to 18%; in experiment [31], 19%; in experiment [32], 3.6%; in experiment [33], 33%; in experiment [34] it was 2.4%; in experiment [35] it was 0.4%. Further, the kinase still bound, per cent of control in experiment [36] worked out at 9.4%; in [15], 0.75%; in [18] it was 15%; in experiment [19] it was 3.6%; in [20] it was 8.6%; in experiment [37] it was 16%. Also, the kinase still bound, per cent of control in experiment [38] came out at 2.6%; in experiment [39], 28%; in experiment [23], 6.2%; in experiment [40], 23%; in experiment [41], 5%; in experiment [27], 28%. Besides, the figures for the kinase still bound, per cent of control in [42] and in experiment [28] were 0.2% and 2.6%, respectively.

Consider `NS(=O)(=O)c1ccc(-c2cccc(/C=C3\SC(=O)NC3=O)c2)cc1`, for which the kinase still bound, per cent of control in experiment [43] is 10%; in experiment [44] it was 5.1%; in experiment [45], 4.2%; in experiment [46] it was 2.2%; in [47], 4.2%; in [48], 1.4%. For the same molecule, the kinase still bound, per cent of control in experiment [49] amounted to 26%; in experiment [50], 30%; in experiment [51], 18%; in experiment [52] it was 16%.
